Key:
Test in all cases: In vitro antibacterial evaluation: minimum inhibitory concentration (MIC), broth dilution method
Format in all cases: cell-based
Enterococcus sp. = conditions: 18 hours at 35° C.
Description: (§1) The minimum inhibitory concentration (MIC), the lowest concentration of the antibiotic which inhibits growth of the test organism, is determined by the broth dilution method using Muller-Hinton II […] (Baltimore Biological Laboratories) following the recommendations of the National Committee for Clinical Laboratory Standards [Methods for dilution antimicrobial susceptibility tests for bacteria that grow aerobically, approved standard M7-A2, National Committee for Clinical Laboratory Standards, Villanova, Pa].
(§2) An inoculum level of 5×10^5 CFU/mL, and a range of antibiotic concentrations (64-0.06 μg/mL) is used. […] The test organisms include a spectrum of Gram-positive bacteria comprised of Staphylococcus sp., Streptococcus sp. and Enterococcus sp. These organisms include recent clinical isolates that are resistant to methicillin, penicillin and/or vancomycin.

Escherichia coli = conditions: 18 hours at 35° C.
Description: as §1, §2

Staphylococcus sp. = tested on: Staphylococcus sp.
Description: as §1, §2

Streptococcus sp. = conditions: 18 hours at 35° C.
Description: as §1, §2

[1] = broth dilution, inoculum 5×10^5 CFU/mL

CC(c1ccc(Cl)cc1)C1NC(=O)CNC(=O)C(CO)NC(=O)C(C(O)C2CNC(=N)N2C2OC(CO)C(O)C(O)C2O)NC(=O)C(C(O)C2CNC(=N)N2)NC(=O)C(Cc2ccc(OC3OC(CO)C(OC4OC5COC(c6ccccc6)OC5C(O)C4O)C(O)C3O)cc2)NC1=O (stereo not drawn) [Example 195, Cyclo[glycyl-4-chloro-β-methylphenylalanyl-O-[4-O-(4,6-O-benzylidenehexopyranosyl)-hexopyranosyl]tyrosyl-3-(2-iminoimidazolidin-4-yl)seryl-3-(3-hexopyranosyl-2-iminoimidazolidin-4-yl)serylseryl]]
4 µg/mL: MIC Coagulase Negative Staphylococcus (GC 4547) (Staphylococcus sp.; strain GC 4547) | MIC Coagulase Negative Staphylococcus (GC 4551) (Staphylococcus sp.; strain GC 4551)
>0.5 µg/mL: MIC Escherichia coli (ATCC 25922) (Escherichia coli; Escherichia coli (ATCC 25922)) | MIC Escherichia coli (GC 4559) (Escherichia coli; Escherichia coli (GC 4559))
2 µg/mL: MIC Staphylococcus haemolyticus (GC 4546) (Staphylococcus sp.; strain GC 4546) | MIC Coagulase Negative Staphylococcus (GC 4548) (Staphylococcus sp.; strain GC 4548) | MIC Coagulase Negative Staphylococcus (GC 6257) (Staphylococcus sp.; strain GC 6257)
0.12 µg/mL: MIC Streptococcus pneumoniae (ATCC 6301) (Streptococcus sp.; Streptococcus pneumoniae (ATCC 6301)) | MIC Streptococcus pneumoniae (GC 1894) (Streptococcus sp.; Streptococcus pneumoniae (GC 1894)) | MIC Streptococcus pneumoniae (GC 4565) (Streptococcus sp.; Streptococcus pneumoniae (GC 4565)) | MIC Streptococcus pyogenes (GC 4563) (Streptococcus sp.; Streptococcus pyogenes (GC 4563)) | MIC Streptococcus pneumoniae (ATCC 6301) (Streptococcus sp.; [1]) | MIC Streptococcus pneumoniae (GC 1894) (Streptococcus sp.; [1]) | MIC Streptococcus pneumoniae (GC 4565) (Streptococcus sp.; [1]) | MIC Streptococcus pyogenes (GC 4563) (Streptococcus sp.; [1])
0.5 µg/mL: MIC Enterococcus avium (GC 4558) (Enterococcus sp.; Enterococcus avium (GC 4558)) | MIC Enterococcus faecalis (ATCC 29212) (Enterococcus sp.; Enterococcus faecalis (ATCC 29212)) | MIC Enterococcus faecalis (GC 2242) (Enterococcus sp.; Enterococcus faecalis (GC 2242)) | MIC Enterococcus faecalis (GC 2691) (Enterococcus sp.; Enterococcus faecalis (GC 2691)) | MIC Enterococcus faecalis (GC 3059) (Enterococcus sp.; Enterococcus faecalis (GC 3059)) | MIC Enterococcus faecalis (GC 4552) (Enterococcus sp.; Enterococcus faecalis (GC 4552)) | MIC Enterococcus faecalis (GC 4553) (Enterococcus sp.; Enterococcus faecalis (GC 4553)) | MIC Enterococcus faecalis (GC 4554) (Enterococcus sp.; Enterococcus faecalis (GC 4554)) | MIC Enterococcus faecalis (GC 6189) (Enterococcus sp.; Enterococcus faecalis (GC 6189)) | MIC Enterococcus faecium (GC 2243) (Enterococcus sp.; Enterococcus faecium (GC 2243)) | MIC Enterococcus faecium (GC 4556) (Enterococcus sp.; Enterococcus faecium (GC 4556)) | MIC Enterococcus faecium (GC 4557) (Enterococcus sp.; Enterococcus faecium (GC 4557)) | MIC Enterococcus avium (GC 4558) (Enterococcus sp.; [1]) | MIC Enterococcus faecalis (ATCC 29212) (Enterococcus sp.; [1]) | MIC Enterococcus faecalis (GC 2242) (Enterococcus sp.; [1]) | MIC Enterococcus faecalis (GC 2691) (Enterococcus sp.; [1]) | MIC Enterococcus faecalis (GC 3059) (Enterococcus sp.; [1]) | MIC Enterococcus faecalis (GC 4552) (Enterococcus sp.; [1]) | MIC Enterococcus faecalis (GC 4553) (Enterococcus sp.; [1]) | MIC Enterococcus faecalis (GC 4554) (Enterococcus sp.; [1]) | MIC Enterococcus faecalis (GC 6189) (Enterococcus sp.; [1]) | MIC Enterococcus faecium (GC 2243) (Enterococcus sp.; [1]) | MIC Enterococcus faecium (GC 4556) (Enterococcus sp.; [1]) | MIC Enterococcus faecium (GC 4557) (Enterococcus sp.; [1]) | MIC Escherichia coli (GC 4560) (Escherichia coli; Escherichia coli (GC 4560)) | MIC Staphylococcus aureus (ATCC 29213) (Staphylococcus sp.; strain ATCC 29213) | MIC Staphylococcus aureus (GC 1131) (Staphylococcus sp.; strain GC 1131) | MIC Staphylococcus aureus (GC 3051) (Staphylococcus sp.; strain GC 3051) | MIC Staphylococcus aureus (GC 3053) (Staphylococcus sp.; strain GC 3053) | MIC Staphylococcus aureus (GC 4541) (Staphylococcus sp.; strain GC 4541) | MIC Staphylococcus aureus (GC 4542) (Staphylococcus sp.; strain GC 4542) | MIC Staphylococcus aureus-SMITH (GC 4543) (Staphylococcus sp.; strain GC 4543) | MIC Staphylococcus aureus (GC 4544) (Staphylococcus sp.; strain GC 4544) | MIC Staphylococcus aureus (GC 4545) (Staphylococcus sp.; strain GC 4545) | MIC Streptococcus agalactiae (GC 4564) (Streptococcus sp.; Streptococcus agalactiae (GC 4564)) | MIC Streptococcus agalactiae (GC 4564) (Streptococcus sp.; [1])
1 µg/mL: MIC Coagulase Negative Staphylococcus (GC 4549) (Staphylococcus sp.; strain GC 4549)
